Patent US20230117470A1, “SUBSTITUTED PYRAZOLE COMPOUNDS AS TOLL RECEPTOR INHIBITORS” (BRISTOL-MYERS SQUIBB COMPANY, priority 2019, published 2023)

Key:
Format in all cases: cell-based
[1] = target: T1, human TLR7 (Homo sapiens, UniProt Q9NYK1); assay: TLR7 inhibition reporter assay (HEK-Blue cells, SEAP reporter, gardiquimod stimulation); conditions: HEK-Blue cells overexpressing human TLR7, SEAP reporter, gardiquimod 7.5 μM
T1 construct: host or cells: HEK-Blue cells
T1 sequence (Q9NYK1 27-1049): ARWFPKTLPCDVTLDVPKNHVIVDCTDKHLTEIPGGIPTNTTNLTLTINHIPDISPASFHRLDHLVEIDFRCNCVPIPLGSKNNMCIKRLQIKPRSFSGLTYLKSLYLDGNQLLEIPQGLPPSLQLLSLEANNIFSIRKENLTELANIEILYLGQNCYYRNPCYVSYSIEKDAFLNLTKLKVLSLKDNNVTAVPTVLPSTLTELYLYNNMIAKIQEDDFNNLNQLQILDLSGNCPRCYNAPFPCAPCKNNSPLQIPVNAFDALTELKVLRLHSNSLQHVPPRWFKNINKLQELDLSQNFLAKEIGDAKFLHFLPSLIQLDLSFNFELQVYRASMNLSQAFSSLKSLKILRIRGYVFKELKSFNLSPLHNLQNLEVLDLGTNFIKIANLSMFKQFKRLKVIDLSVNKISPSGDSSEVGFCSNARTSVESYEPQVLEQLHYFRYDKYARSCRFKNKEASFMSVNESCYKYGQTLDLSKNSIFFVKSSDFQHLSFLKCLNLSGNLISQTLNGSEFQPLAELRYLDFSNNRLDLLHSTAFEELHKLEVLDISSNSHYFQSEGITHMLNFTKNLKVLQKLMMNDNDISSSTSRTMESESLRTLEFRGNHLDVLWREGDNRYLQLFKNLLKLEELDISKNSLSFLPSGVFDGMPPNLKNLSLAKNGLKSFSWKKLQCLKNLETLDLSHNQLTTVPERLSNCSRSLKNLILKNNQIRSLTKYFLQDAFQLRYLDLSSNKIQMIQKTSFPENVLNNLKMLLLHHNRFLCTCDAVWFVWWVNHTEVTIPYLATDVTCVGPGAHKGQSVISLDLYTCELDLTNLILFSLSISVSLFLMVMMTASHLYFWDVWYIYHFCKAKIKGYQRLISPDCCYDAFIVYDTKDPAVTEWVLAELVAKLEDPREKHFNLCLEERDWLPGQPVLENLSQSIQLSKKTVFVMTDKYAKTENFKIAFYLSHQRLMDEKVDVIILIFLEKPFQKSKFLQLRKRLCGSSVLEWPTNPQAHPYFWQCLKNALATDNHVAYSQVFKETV
Procedure, shortened: (§1)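 30 min RT cpd pre-incubation (0.05 nM–50 μM final dose response) → agonist: gardiquimod 7.5 μM / R848 15.9 μM / ODN2006 5 nM for TLR7/8/9 resp. → 22 h, 37° C → SEAP via detection medium. % inhibition vs agonist+DMSO and reference inhibitor controls.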

[2] = target: T2, human TLR8 (Homo sapiens, UniProt Q9NR97); assay: TLR8 inhibition reporter assay (HEK-Blue cells, SEAP reporter, R848 stimulation); conditions: HEK-Blue cells overexpressing human TLR8, SEAP reporter, R848 15.9 μM
T2 construct: host or cells: HEK-Blue cells
T2 sequence (Q9NR97 27-1041): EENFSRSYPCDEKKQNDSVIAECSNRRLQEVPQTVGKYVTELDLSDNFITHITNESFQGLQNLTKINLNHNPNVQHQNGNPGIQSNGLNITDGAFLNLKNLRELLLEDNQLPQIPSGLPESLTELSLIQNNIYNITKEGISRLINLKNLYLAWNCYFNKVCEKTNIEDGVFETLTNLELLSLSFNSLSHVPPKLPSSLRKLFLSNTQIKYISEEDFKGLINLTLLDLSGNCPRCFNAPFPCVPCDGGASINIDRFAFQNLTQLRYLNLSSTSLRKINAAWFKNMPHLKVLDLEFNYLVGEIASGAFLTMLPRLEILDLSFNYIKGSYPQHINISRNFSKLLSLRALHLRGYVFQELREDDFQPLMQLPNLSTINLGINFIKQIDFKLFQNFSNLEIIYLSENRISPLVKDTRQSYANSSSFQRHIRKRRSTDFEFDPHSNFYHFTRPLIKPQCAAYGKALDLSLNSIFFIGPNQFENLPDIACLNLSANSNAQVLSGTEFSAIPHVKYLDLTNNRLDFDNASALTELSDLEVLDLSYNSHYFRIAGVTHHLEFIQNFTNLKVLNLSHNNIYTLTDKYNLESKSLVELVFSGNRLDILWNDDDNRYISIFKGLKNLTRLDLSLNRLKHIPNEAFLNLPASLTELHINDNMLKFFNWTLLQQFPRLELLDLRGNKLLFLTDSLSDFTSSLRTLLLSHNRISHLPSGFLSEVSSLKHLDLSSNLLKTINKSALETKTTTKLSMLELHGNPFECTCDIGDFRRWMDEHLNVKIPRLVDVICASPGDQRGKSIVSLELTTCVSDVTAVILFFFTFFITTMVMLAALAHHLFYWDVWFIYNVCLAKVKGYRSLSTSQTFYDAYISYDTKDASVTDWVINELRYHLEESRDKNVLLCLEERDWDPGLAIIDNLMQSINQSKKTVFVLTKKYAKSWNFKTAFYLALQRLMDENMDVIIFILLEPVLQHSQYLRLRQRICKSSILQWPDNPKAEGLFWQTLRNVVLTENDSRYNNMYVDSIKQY
Procedure, shortened: as §1

[3] = target: T3, human TLR9 (Homo sapiens, UniProt Q9NR96); assay: TLR9 inhibition reporter assay (HEK-Blue cells, SEAP reporter, ODN2006 stimulation); conditions: HEK-Blue cells overexpressing human TLR9, SEAP reporter, ODN2006 5 nM
T3 construct: host or cells: HEK-Blue cells
T3 sequence (Q9NR96 26-1032): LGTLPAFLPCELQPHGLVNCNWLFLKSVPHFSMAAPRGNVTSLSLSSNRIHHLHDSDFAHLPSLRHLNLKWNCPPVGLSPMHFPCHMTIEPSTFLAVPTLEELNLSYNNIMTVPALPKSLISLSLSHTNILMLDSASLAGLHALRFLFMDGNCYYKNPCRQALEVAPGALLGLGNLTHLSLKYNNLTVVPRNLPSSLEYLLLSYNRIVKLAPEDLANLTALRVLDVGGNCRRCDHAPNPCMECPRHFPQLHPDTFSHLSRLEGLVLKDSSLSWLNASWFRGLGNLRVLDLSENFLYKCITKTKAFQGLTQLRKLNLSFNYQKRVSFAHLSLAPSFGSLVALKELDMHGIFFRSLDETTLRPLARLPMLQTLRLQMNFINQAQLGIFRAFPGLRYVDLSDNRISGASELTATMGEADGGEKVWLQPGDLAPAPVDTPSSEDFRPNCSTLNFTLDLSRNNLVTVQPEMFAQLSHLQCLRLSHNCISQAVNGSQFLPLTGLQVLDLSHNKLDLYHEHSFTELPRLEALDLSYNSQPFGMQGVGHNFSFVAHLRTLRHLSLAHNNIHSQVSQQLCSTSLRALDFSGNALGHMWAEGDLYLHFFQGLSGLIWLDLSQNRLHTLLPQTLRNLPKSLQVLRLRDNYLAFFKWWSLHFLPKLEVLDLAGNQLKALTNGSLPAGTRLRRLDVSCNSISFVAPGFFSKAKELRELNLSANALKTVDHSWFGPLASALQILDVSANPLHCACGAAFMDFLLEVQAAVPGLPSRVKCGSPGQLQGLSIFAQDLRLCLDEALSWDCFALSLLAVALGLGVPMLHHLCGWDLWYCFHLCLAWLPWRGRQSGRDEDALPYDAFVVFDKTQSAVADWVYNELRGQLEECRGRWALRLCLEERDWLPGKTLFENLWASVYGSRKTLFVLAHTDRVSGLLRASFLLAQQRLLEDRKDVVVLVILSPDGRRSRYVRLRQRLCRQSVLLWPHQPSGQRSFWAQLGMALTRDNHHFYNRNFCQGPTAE
Procedure, shortened: as §1

SMILES | IC50 [1] | IC50 [2] | IC50 [3]
COc1cc(-c2[nH]nc(-c3cnc(C4CCN(C5CCC5)CC4)cn3)c2C(C)C)cn2ncnc12 [Example 387] | 25.2 nM | 43.9 nM | 11500 nM
COc1c(C)c(-c2[nH]nc(-c3ccc(C4CCN(CC5CCOCC5)CC4)cn3)c2C(C)C)cn2ncnc12 [Example 388] | 22.4 nM | 37.4 nM | 16100 nM
COc1cc(-c2[nH]nc(-c3ccc(C4CCN(CC(=O)N(C)C)CC4)cn3)c2C(C)C)cn2ncnc12 [Example 389, 2-(4-(6-(4-isopropyl-5-(8-methoxy-[1,2,4]triazolo[1,5-a]pyridin-6-yl)-1H-pyrazol-3-yl)pyridin-3-yl)piperidin-1-yl)-N,N-dimethylacetamide] | 50.3 nM | 168 nM | 37100 nM
Cc1cc(-c2[nH]nc(-c3ncc(C4CCN(CC(C)(C)O)CC4)cn3)c2C(C)C)cn2ncnc12 [Example 390] | 93.6 nM | 481 nM | > 50000 nM
COc1cc(-c2[nH]nc(-c3ccc(C4CCN(CC(C)(C)O)CC4)cn3)c2C(C)C)cn2ncnc12 [Example 391] | 102 nM | 118 nM | > 50000 nM
COc1cc(-c2[nH]nc(-c3ccc(C4CCN(CCS(C)(=O)=O)CC4)cn3)c2C(C)C)cn2ncnc12 [Example 392] | 241 nM | 404 nM | > 50000 nM
COc1cc(-c2[nH]nc(-c3ccc(C4CCN(CC(N)=O)CC4)cn3)c2C(C)C)cn2ncnc12 [Example 393] | 77.6 nM | 140 nM | > 50000 nM
COc1cc(-c2[nH]nc(-c3ccc(C4CCN(CC#N)CC4)cn3)c2C(C)C)cn2ncnc12 [Example 394] | 154 nM | 529 nM | > 50000 nM
COCCN1CCC(c2cnc(-c3n[nH]c(-c4cc(OC)c5ncnn5c4)c3C(C)C)cn2)CC1 [Example 396] | 102 nM | 53.9 nM | > 50000 nM
COc1cc(-c2[nH]nc(-c3cnc(C4CCN(CCS(C)(=O)=O)CC4)cn3)c2C(C)C)cn2ncnc12 [Example 397] | 221 nM | 463 nM | > 50000 nM
COc1cc(-c2[nH]nc(-c3cnc(C4CCN(CCF)CC4)cn3)c2C(C)C)cn2ncnc12 [Example 398] | 137 nM | 365 nM | > 50000 nM
COc1cc(-c2[nH]nc(-c3cnc(C4CCN(CCCF)CC4)cn3)c2C(C)C)cn2ncnc12 [Example 399] | 126 nM | 132 nM | > 50000 nM
CNC(=O)CN1CCC(c2cnc(-c3n[nH]c(-c4cc(OC)c5ncnn5c4)c3C(C)C)cn2)CC1 [Example 400] | 13.5 nM | 15.9 nM | 9250 nM
COc1cc(-c2[nH]nc(-c3cnc(C4CCN(CC(=O)N(C)C)CC4)cn3)c2C(C)C)cn2ncnc12 [Example 401] | 36.9 nM | 35.7 nM | 13500 nM
COc1cc(-c2[nH]nc(-c3ccc(C4CCN(C(=O)CN(C)C)CC4)cn3)c2C(C)C)cn2ncnc12 [Example 402, 2-(dimethylamino)-1-(4-(6-(4-isopropyl-5-(8-methoxy-[1,2,4]triazolo[1,5-a]pyridin-6-yl)-1H-pyrazol-3-yl)pyridin-3-yl)piperidin-1-yl)ethan-1-one] | 35.1 nM | 297 nM | > 50000 nM
COc1cc(-c2[nH]nc(-c3cnc(C4CCN(C(=O)CN(C)C)CC4)cn3)c2C(C)C)cn2ncnc12 [Example 403] | 26.9 nM | 156 nM | > 50000 nM
CCN(CC)CC(=O)N1CCC(c2cnc(-c3n[nH]c(-c4cc(OC)c5ncnn5c4)c3C(C)C)cn2)CC1 [Example 404] | 43.6 nM | 124 nM | > 50000 nM
Cc1cc(-c2[nH]nc(-c3ccc(N4CC(N(C)C)C4)cc3)c2C(C)C)cn2ncnc12 [Example 405, 1-(4-(4-isopropyl-5-(8-methyl-[1,2,4]triazolo[1,5-a]pyridin-6-yl)-1H-pyrazol-3-yl)phenyl)-N,N-dimethylazetidin-3-amine] | 77.5 nM | 215 nM | 37700 nM
Cc1cc(-c2[nH]nc(-c3ccc(N4CCNCC4)cc3)c2C(C)C)cn2ncnc12 [Example 406] | 2.74 nM | 142 nM | > 50000 nM
Cc1cc(-c2[nH]nc(-c3cnc(N4CCNCC4)nc3)c2C(C)C)cn2ncnc12 [Example 407] | 28.6 nM | 279 nM | > 50000 nM
Cc1cc(-c2[nH]nc(-c3ccc(N4CCN(CC(C)(C)C)CC4)cc3)c2C(C)C)cn2ncnc12 [Example 408] | 47.4 nM | 168 nM | > 50000 nM
Cc1cc(-c2[nH]nc(-c3ccc(N4CC(NC(C)C)C4)cc3)c2C(C)C)cn2ncnc12 [Example 409] | 48.2 nM | 345 nM | 9760 nM
CNC(=O)CN1CCC(NC(=O)c2n[nH]c(-c3cc(C)c4ncnn4c3)c2C(C)C)CC1 [compound 177] | 3.23 nM | 5.63 nM | 9790 nM
